IC50 and EC50 data for 12 compounds are collected here from US11713338B2, “Cyclic peptides multimers targeting α-4-β-7 integrin” (priority 2016, dated 2023).

Read-outs that look alike come from different tables or passages of the source.

This assay has as its target T1, integrin α4β7 on α4β7+ memory T helper cells (Homo sapiens, UniProt P13612+P26010).
T1 construct: endogenous in cells
T1 sequence (P13612 34-1032): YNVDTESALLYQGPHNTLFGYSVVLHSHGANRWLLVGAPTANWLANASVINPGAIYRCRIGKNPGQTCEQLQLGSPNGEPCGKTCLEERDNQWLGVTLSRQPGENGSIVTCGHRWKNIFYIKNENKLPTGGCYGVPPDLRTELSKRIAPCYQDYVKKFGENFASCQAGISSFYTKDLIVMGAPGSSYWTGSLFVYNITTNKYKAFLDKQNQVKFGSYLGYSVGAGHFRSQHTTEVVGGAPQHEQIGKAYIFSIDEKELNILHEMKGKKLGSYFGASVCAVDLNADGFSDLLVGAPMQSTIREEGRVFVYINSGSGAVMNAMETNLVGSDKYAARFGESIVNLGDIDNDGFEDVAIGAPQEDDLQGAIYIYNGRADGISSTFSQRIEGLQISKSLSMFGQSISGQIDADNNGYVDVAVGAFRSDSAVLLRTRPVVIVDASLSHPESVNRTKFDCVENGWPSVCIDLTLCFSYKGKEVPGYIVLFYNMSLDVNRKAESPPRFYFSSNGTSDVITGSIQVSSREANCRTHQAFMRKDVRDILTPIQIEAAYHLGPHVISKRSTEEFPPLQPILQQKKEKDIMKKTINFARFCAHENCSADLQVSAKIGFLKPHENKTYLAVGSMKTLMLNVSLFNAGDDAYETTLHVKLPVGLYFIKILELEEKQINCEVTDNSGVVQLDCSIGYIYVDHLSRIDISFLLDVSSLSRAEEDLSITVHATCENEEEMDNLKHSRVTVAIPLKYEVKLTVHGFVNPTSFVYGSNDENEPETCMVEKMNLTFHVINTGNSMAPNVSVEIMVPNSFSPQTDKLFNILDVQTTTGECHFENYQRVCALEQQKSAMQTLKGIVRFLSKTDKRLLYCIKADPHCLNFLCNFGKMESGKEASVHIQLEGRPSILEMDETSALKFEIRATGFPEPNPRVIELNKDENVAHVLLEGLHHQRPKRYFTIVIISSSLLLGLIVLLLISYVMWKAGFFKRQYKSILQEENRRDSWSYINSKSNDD
T1 sequence (P26010 20-798): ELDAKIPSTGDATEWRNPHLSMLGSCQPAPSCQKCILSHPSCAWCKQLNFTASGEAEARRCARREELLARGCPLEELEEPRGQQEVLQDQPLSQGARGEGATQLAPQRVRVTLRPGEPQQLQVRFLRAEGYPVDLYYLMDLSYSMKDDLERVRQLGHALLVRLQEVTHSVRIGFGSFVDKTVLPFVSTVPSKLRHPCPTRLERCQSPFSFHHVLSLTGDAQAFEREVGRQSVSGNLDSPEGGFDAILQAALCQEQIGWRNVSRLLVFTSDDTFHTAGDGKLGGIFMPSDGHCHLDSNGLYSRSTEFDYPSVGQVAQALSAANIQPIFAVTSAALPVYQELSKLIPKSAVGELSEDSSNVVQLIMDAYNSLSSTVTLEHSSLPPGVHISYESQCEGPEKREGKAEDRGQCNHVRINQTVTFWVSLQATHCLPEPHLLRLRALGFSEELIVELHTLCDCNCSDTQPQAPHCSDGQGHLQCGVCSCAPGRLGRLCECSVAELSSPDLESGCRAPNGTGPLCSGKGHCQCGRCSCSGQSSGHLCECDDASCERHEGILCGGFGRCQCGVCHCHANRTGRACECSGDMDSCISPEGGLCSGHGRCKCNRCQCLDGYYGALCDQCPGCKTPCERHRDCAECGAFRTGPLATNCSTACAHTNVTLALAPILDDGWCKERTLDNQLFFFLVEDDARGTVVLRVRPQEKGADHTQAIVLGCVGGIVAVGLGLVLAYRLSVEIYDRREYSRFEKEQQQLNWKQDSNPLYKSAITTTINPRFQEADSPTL
The assay is described as follows: MAdCAM-1 competition / receptor occupancy assay in human whole blood, α4β7-positive Th memory cells. It is filed as cell-based. The procedure, abridged:
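Human heparinised whole blood; saturating biotinylated rhMAdCAM-1-Fc or rhVCAM-1-Fc bound 1 h at RT, stained in buffer with 4 mM MnCl2, detected by streptavidin-APC flow cytometry on gated CD45+CD3+CD4+CD45RO+CD49d+ β7+ or β7-lo cells. Occupancy = 100−((% ligand-positive cells with compound/% ligand-positive cells DMSO)*100).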

[1] abbreviates: human whole blood, inhibition of MAdCAM-1 binding to α4β7-positive Th memory cells, FACS, read-out: MADCAM FACS α4β7 Th mem.

In the case of `CC(C)C[C@@H]1NC(=O)c2ccc(-c3ccc(N4CCN(CC(=O)N5CCN(c6ccc(-c7ccc8cc7CNC(=O)[C@@H]7CCCN7[C@H](C(=O)NC(C)(C)C)[C@H](C)NC(=O)[C@H]([C@@H](C)O)NC(=O)[C@H](CC(=O)O)NC(=O)[C@H](CC(C)C)NC8=O)cc6)CC5)CC4)cc3)c(c2)CNC(=O)[C@@H]2CCCN2[C@H](C(=O)NC(C)(C)C)[C@H](C)NC(=O)[C@H]([C@@H](C)O)NC(=O)[C@H](CC(=O)O)NC1=O` [Compound 481], the IC50 under setting [1] was 67 nM.

Take `CC(C)C[C@@H]1NC(=O)c2ccc(-c3ccc(N4CCN(CCC(=O)N5CCN(c6ccc(-c7ccc8cc7CNC(=O)[C@@H]7CCCN7[C@H](C(=O)NC(C)(C)C)[C@H](C)NC(=O)[C@H]([C@@H](C)O)NC(=O)[C@H](CC(=O)O)NC(=O)[C@H](CC(C)C)NC8=O)cc6)CC5)CC4)cc3)c(c2)CNC(=O)[C@@H]2CCCN2[C@H](C(=O)NC(C)(C)C)[C@H](C)NC(=O)[C@H]([C@@H](C)O)NC(=O)[C@H](CC(=O)O)NC1=O` [Compound 482]: under setting [1], the IC50 was determined as 30 nM.

On to `CC(C)C[C@@H]1NC(=O)c2ccc(-c3ccc(N4CCN(C(=O)CCC(=O)N5CCN(c6ccc(-c7ccc8cc7CNC(=O)[C@@H]7CCCN7[C@H](C(=O)NC(C)(C)C)[C@H](C)NC(=O)[C@H]([C@@H](C)O)NC(=O)[C@H](CC(=O)O)NC(=O)[C@H](CC(C)C)NC8=O)cc6)CC5)CC4)cc3)c(c2)CNC(=O)[C@@H]2CCCN2[C@H](C(=O)NC(C)(C)C)[C@H](C)NC(=O)[C@H]([C@@H](C)O)NC(=O)[C@H](CC(=O)O)NC1=O` [Compound 484], for which, under setting [1], the IC50 came out at 45 nM.

As to `CC(C)C[C@@H]1NC(=O)c2ccc(-c3ccc(N4CCN(C(=O)C[C@@H](N)C(=O)N5CCN(c6ccc(-c7ccc8cc7CNC(=O)[C@@H]7CCCN7[C@H](C(=O)NC(C)(C)C)[C@H](C)NC(=O)[C@H]([C@@H](C)O)NC(=O)[C@H](CC(=O)O)NC(=O)[C@H](CC(C)C)NC8=O)cc6)CC5)CC4)cc3)c(c2)CNC(=O)[C@@H]2CCCN2[C@H](C(=O)NC(C)(C)C)[C@H](C)NC(=O)[C@H]([C@@H](C)O)NC(=O)[C@H](CC(=O)O)NC1=O` [Compound 493], the IC50 under setting [1] turned out to be 94 nM.

As to `CC(C)C[C@@H]1NC(=O)c2ccc(-c3ccc(N4CCN(C(=O)CC[C@H](N)C(=O)N5CCN(c6ccc(-c7ccc8cc7CNC(=O)[C@@H]7CCCN7[C@H](C(=O)NC(C)(C)C)[C@H](C)NC(=O)[C@H]([C@@H](C)O)NC(=O)[C@H](CC(=O)O)NC(=O)[C@H](CC(C)C)NC8=O)cc6)CC5)CC4)cc3)c(c2)CNC(=O)[C@@H]2CCCN2[C@H](C(=O)NC(C)(C)C)[C@H](C)NC(=O)[C@H]([C@@H](C)O)NC(=O)[C@H](CC(=O)O)NC1=O` [Compound 494], the IC50 under setting [1] is 128 nM.

For the compound `CC(C)C[C@@H]1NC(=O)c2ccc(-c3ccc(N4CCN(Cc5cccc(CN6CCN(c7ccc(-c8ccc9cc8CNC(=O)[C@@H]8CCCN8[C@H](C(=O)NC(C)(C)C)[C@H](C)NC(=O)[C@H]([C@@H](C)O)NC(=O)[C@H](CC(=O)O)NC(=O)[C@H](CC(C)C)NC9=O)cc7)CC6)c5)CC4)cc3)c(c2)CNC(=O)[C@@H]2CCCN2[C@H](C(=O)NC(C)(C)C)[C@H](C)NC(=O)[C@H]([C@@H](C)O)NC(=O)[C@H](CC(=O)O)NC1=O` [Compound 499], the IC50 under setting [1] came to 41 nM.

In the case of `CC(C)C[C@@H]1NC(=O)c2ccc(-c3ccc(N4CCN(Cc5ccc(CN6CCN(c7ccc(-c8ccc9cc8CNC(=O)[C@@H]8CCCN8[C@H](C(=O)NC(C)(C)C)[C@H](C)NC(=O)[C@H]([C@@H](C)O)NC(=O)[C@H](CC(=O)O)NC(=O)[C@H](CC(C)C)NC9=O)cc7)CC6)cc5)CC4)cc3)c(c2)CNC(=O)[C@@H]2CCCN2[C@H](C(=O)NC(C)(C)C)[C@H](C)NC(=O)[C@H]([C@@H](C)O)NC(=O)[C@H](CC(=O)O)NC1=O` [Compound 500], the IC50 under setting [1] stood at 55 nM.

As to `CC(C)C[C@@H]1NC(=O)c2ccc(-c3ccc(N4CCN(C(=O)CCOCCOCCOCCOCCOCCOCCOCCOCCOCCOCCC(=O)N5CCN(c6ccc(-c7ccc8cc7CNC(=O)[C@@H]7CCCN7[C@H](C(=O)NC(C)(C)C)[C@H](C)NC(=O)[C@H]([C@@H](C)O)NC(=O)[C@H](CC(=O)O)NC(=O)[C@H](CC(C)C)NC8=O)cc6)CC5)CC4)cc3)c(c2)CNC(=O)[C@@H]2CCCN2[C@H](C(=O)NC(C)(C)C)[C@H](C)NC(=O)[C@H]([C@@H](C)O)NC(=O)[C@H](CC(=O)O)NC1=O` [Compound 511], the IC50 under setting [1] came to 182 nM.

For orientation: EC50 means the concentration that produces a half-maximal response. As for `CC(C)C[C@@H]1NC(=O)c2ccc(-c3ccc(N4CCN(C(=O)c5ccccc5-c5ccccc5C(=O)N5CCN(c6ccc(-c7ccc8cc7CNC(=O)[C@@H]7CCCN7[C@H](C(=O)NC(C)(C)C)[C@H](C)NC(=O)[C@H]([C@@H](C)O)NC(=O)[C@H](CC(=O)O)NC(=O)[C@H](CC(C)C)NC8=O)cc6)CC5)CC4)cc3)c(c2)CNC(=O)[C@@H]2CCCN2[C@H](C(=O)NC(C)(C)C)[C@H](C)NC(=O)[C@H]([C@@H](C)O)NC(=O)[C@H](CC(=O)O)NC1=O` [Compound 517], where the note is “human whole blood, FIG. 7, read-out: EC50, competition with saturating amount of MAdCAM”, the EC50 worked out at 38 nM. For the same compound, under setting [1], the IC50 is 43 nM.

Consider `CC(C)C[C@@H]1NC(=O)c2ccc(-c3ccc(N4CCN(C(=O)c5cc(C(=O)N6CCN(c7ccc(-c8ccc9cc8CNC(=O)[C@@H]8CCCN8[C@H](C(=O)NC(C)(C)C)[C@H](C)NC(=O)[C@H]([C@@H](C)O)NC(=O)[C@H](CC(=O)O)NC(=O)[C@H](CC(C)C)NC9=O)cc7)CC6)cc(C(=O)N6CCN(c7ccc(-c8ccc9cc8CNC(=O)[C@@H]8CCCN8[C@H](C(=O)NC(C)(C)C)[C@H](C)NC(=O)[C@H]([C@@H](C)O)NC(=O)[C@H](CC(=O)O)NC(=O)[C@H](CC(C)C)NC9=O)cc7)CC6)c5)CC4)cc3)c(c2)CNC(=O)[C@@H]2CCCN2[C@H](C(=O)NC(C)(C)C)[C@H](C)NC(=O)[C@H]([C@@H](C)O)NC(=O)[C@H](CC(=O)O)NC1=O` [Compound 520], for which the IC50 under setting [1] is 1.2 nM.

`CC(C)C[C@@H]1NC(=O)C[C@H](CCCCN)N(C)C(=O)[C@H](CCCCNC(=O)CCCCCCCCC(=O)NCCCC[C@@H]2NC(=O)[C@@H]3CCCN3[C@H](C(=O)NC(C)(C)C)[C@H](C)NC(=O)[C@H]([C@@H](C)O)NC(=O)[C@H](CC(=O)O)NC(=O)[C@H](CC(C)C)NC(=O)C[C@H](CCCCN)N(C)C2=O)NC(=O)[C@@H]2CCCN2[C@H](C(=O)NC(C)(C)C)[C@H](C)NC(=O)[C@H]([C@@H](C)O)NC(=O)[C@H](CC(=O)O)NC1=O` [Compound 530]: the IC50 is 33 nM under setting [1] and 87 to 141 nM (whole blood from a single donor, FIG. 10, read-out: IC50, inhibition of MAdCAM-1 binding to primary cells).

As for `CC(C)C[C@@H]1NC(=O)C[C@H](CCCCN)N(C)C(=O)[C@H](CCCCNC(=O)CCCCCC(=O)NCCCC[C@@H]2NC(=O)[C@@H]3CCCN3[C@H](C(=O)NC(C)(C)C)[C@H](C)NC(=O)[C@H]([C@@H](C)O)NC(=O)[C@H](CC(=O)O)NC(=O)[C@H](CC(C)C)NC(=O)C[C@H](CCCCN)N(C)C2=O)NC(=O)[C@@H]2CCCN2[C@H](C(=O)NC(C)(C)C)[C@H](C)NC(=O)[C@H]([C@@H](C)O)NC(=O)[C@H](CC(=O)O)NC1=O` [Compound 532], under setting [1], the IC50 amounted to 57 nM.
